Test results published in publication PMC12051620, “Molecular basis underlying the specificity of an antagonist AA92593 for mammalian melanopsins” (The Journal of Biological Chemistry, 2025).

Target: lanceolatum melanopsin F189^ECL2W/I207^5.42F mutant (Branchiostoma lanceolatum, UniProt A0A2Z4C1D4, F188W/I204F)
Test: GsX GloSensor assay with Gsα/q11
Assay type: cell-based
Text: We assessed the effect of the antagonist on the mutants using the GsX GloSensor assay with Gsα/q11. […] Furthermore, the double substitution F189^ECL2W/I207^5.42F further increased the susceptibility of the lanceolatum melanopsin to the antagonist by ∼88% (Fig. 7, G, H, and I). The AA92593-induced inhibition of the double mutant F189^ECL2W/I207^5.42F was as efficient as that of human melanopsin (Fig. 7I). […] Taken together, the introduction of Trp-189^ECL2 and Phe-207^5.42 rendered lanceolatum melanopsin highly sensitive to the antagonist (Fig. 7, G, H, and I).
For GloSensor assay, opsins, GloSensor assay sensor (coded by pGlo-22F), and NanoBiT-tagged G proteins were transiently expressed in COS-1 cells (kindly provided from Dr David Farrens, Oregon Health and Science University) using PEI as described previously ([24], [52]). For the GsX GloSensor assay ([12], [13]), each well of a 96-well assay plate (Corning) was transfected with 50 ng opsin plasmid, 16.7 ng G protein plasmid, 50 ng pGlo-22F plasmid (Promega), and 500 ng PEI in 25 μl Opti-mem and 75 μl Dulbecco's modified Eagle's medium (D-MEM). For NanoBiT G protein dissociation assay, each well of a 96-well assay plate was transfected with 50 ng opsin plasmid, 5 ng Lg-BiT inserted Gqα (Gqα-LgBiT) plasmid, 25 ng Gβ1 plasmid, 25 ng Sm-BiT fused Gγ2 plasmid, 5 ng RIC8A plasmid, and 500 ng PEI in 25 μl Opti-mem and 75 μl D-MEM. For GFP-fluorescence microscopy, a 35-mm cell culture dish (IWAKI) was transfected with 2 μg melanopsin-GFP plasmid and 8 μg PEI in 400 μl Opti-mem and 1.2 ml D-MEM. […]
The transfected COS-1 cells were incubated at 37 °C, 5% CO2 for 2 days, and the medium was aspirated and exchanged with 50 μl of HBSS (145 mM NaCl, 10 mM D-glucose, 5 mM KCl, 1 mM MgCl2, 1.7 mM CaCl2, 1.5 mM NaHCO3, 10 mM Hepes, pH 7.4), containing 33.3, 20, 10, 2, 0.2, 0.02, 0.002, or 0 μM AA92593, 0.5% dimetyl sulfoxide (DMSO), and 4% (vol/vol) GloSensor cAMP reagent stock solution. […] Then, the cells were incubated at room temperature for 1 h, and luminescence changes were monitored. After incubation of the cells with AA92593, luminescence measurement was interrupted, the plate was ejected, and the cells were added with 50 μl of HBSS containing 0.2 μM 9-cis-retinal. […] Luminescence was measured using GM-2000 or GM-3510 microplate reader (Promega). Luminescence level of each well was measured every 30 s with integration time of 0.6 to 0.9 s. To illuminate opsins, luminescence measurement was interrupted, the plate was ejected, and the plate was illuminated by white light with CN-160 LED video light (light intensity, ∼9 mW/cm^2) (NEEWER). […] After illumination, luminescence measurement was resumed. The measured luminescence levels were normalized to the level at the starting point (time = 0 min). […]

[1] = relative peak cAMP response vs no AA92593

lanceolatum melanopsin F189^ECL2W/I207^5.42F mutant, sequence (A0A2Z4C1D4 entry or part of it F188W/I204F): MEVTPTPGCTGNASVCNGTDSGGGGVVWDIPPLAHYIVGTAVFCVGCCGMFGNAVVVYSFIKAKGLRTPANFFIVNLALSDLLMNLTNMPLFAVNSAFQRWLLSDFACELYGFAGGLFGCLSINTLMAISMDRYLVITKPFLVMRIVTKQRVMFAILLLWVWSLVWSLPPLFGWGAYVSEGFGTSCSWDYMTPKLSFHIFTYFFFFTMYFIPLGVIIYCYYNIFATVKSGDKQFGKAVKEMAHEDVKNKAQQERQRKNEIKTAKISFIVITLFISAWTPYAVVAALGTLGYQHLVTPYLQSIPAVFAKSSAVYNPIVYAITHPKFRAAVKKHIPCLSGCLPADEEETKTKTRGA

COc1ccc(S(=O)(=O)N2CCCCC2)cc1C [AA92593]
Hill fitting parameter rate of dose-response curve: −0.84 ± 0.75
IC50: 1.4 ± 0.88 µM
Hill fitting parameter max of dose-response curve [1]: 107.65 ± 12.6
Hill fitting parameter min of dose-response curve [1]: −5.22 ± 4.53
